# Laboratory results reported in patent publication US20250197864A1, “LNCRNA TRANSCRIPTS IN MELANOMAGENESIS” (The Regents of the University of California, priority 2021, published 2025).
# What was measured:
# [1] = test system: hepatocellular carcinoma cell line HepG2; assay: Cell viability assay (ATP quantitation); format: cell-based; details: 50 nM, 120 hrs, Lipofectamine3000 2 ul/ml, vs non-targeting control ASO
# Procedure: (§1) EsiRNA, siRNA and ASO GapmeRs were transfected in a final concentration of 50 nM unless mentioned otherwise and the transfection reagent Lipofectamine 3000 (2 ul/ml) was added according to the manufacturer's instructions.
# (§2) Dependent on cell doubling time, 0.7-2×10^^3 cells were seeded in 96 well plates. 1 day after seeding cells were incubated in media with oligonucleotide concentration and/or MEKi and transfection reagent. 3 (synergy experiments) or 5 (solely ASO) days after transfection Total luminescence was measured on the SynergyHT plate reader (BioTek) using Gen5 software.
# (§3) Cell viability was compared to treatment with non-targeting control ASO-treatment. Lipofectamine3000 concentration was 2 ul/ml.
# [2] = test system: sarcoma cell line SK-LMS-1; assay: Cell viability assay (ATP quantitation); format: cell-based; details: SK-LMS-1 sarcoma; 50 nM, 120 hrs; Lipofectamine3000 2 ul/ml; vs non-targeting control ASO
# Procedure: as §1, §2, §3
# Caspase 3+7 = assay: Caspase Glo 3/7 assay in D04 cell line; format: cell-based, human; details: ASO 50 nM, 1 day, vs control ASOs
# Procedure: Dependent on cell doubling time, 2-3×10^^3 cells were seeded in 96 well plates. 1 day after seeding cells were incubated in media with 50 nM oligonucleotide concentration and transfection reagent. 1 day after transfection Total luminescence was measured on the SynergyHT plate reader (BioTek) using Gen5 software. Experiments were performed in quadruplicates.
# [3] = test system: gene expression in D04 melanoma cells; assay: DAVID Functional Annotation Clustering (GO term) analysis of DE genes; set-up: species or system human; details: RNA-Seq
# Procedure: Differential expression (DE) analysis was done using DESeq2. Differentially expressed genes were defined by more than 1.5-fold changes (log 2 >0.58 or <−0.58) in expression with FDR<0.05. GO term analysis was done using DAVID Functional Annotation Clustering analysis.
# To examine the biomolecular changes upon TRASH-inhibition in melanoma, D04 cells were treated with TRASH-ASOs (SEQ ID NO:15) and Control-ASOs and RNA was extracted and used for RNA-Seq. […] These GO terms consisted of genes encoding growth factors, tyrosine kinases, G protein coupled receptor subunits, and collagen subunits. Scatter plot diagram showing differential gene expression after TRASH-ASO treatment compared to Control-ASO treatment. (cut-off for significance was adjusted p-value <0.05). Data was obtained from RNA-Seq of D04 melanoma cells, treatment period was three days. (FIG. 5c)
# [4] = test system: kinases in D04, D04RM and MM415 melanoma cell extracts; assay: High Throughput Kinase Activity Mapping (HT-KAM); format: cell-based, human; details: ASO 50 nM, one day, vs Control-ASO
# Procedure: We mapped and compared the phospho-catalytic profile of kinases of D04, MM415 and D04RM cells that were incubated with TRASH targeting ASOs (SEQ TD NO: 15), ASOs targeting the oncogenic lncRNA Malat1 and non-targeting control ASOs. Therefore, ye used the high-throughput system HTKAM to measure the enzymatic activity of kinases using biological peptide targets as phospho-sensors to reveal kinase dependencies in cell lines.
# Kinases cover a wide range of apoptosis regulating functions in cancer. Given the findings that TRASH-ASO treatment (SEQ ID NO:15) strongly affects the transcriptional regulation of genes that are related to kinase signaling pathways, we aimed to perform functional profiling of kinase activity shifts triggered by TRASH-inhibition. To do so, we used a kinase activity screening platform39 (named High Throughput Kinase Activity Mapping—HT-KAM) that enables the simultaneous identification of kinase enzymes functional state in cancer cells across a broad range of kinase families (see Methods for details). We generated protein extracts of two versions of the D04 (D04—treatment naive; D04RM—trametinib resistant) and the MM415 melanoma cell-lines, treated with Control-ASOs or TRASH-ASOs. […]
# D04 cells = assay: Flow cytometry apoptosis (Annexin V and propidium iodide); format: cell-based, human; details: 50 nM, 24 h, vs Control-ASO
# Procedure: To confirm activation of apoptosis and cell death in response to TRASH-ASO treatment (SEQ ID NO: 15) D04 cells were either treated with control-ASO or TRASH-ASO (50 nM) for 24 h. The cells were stained with Alexa 488 Annexin V and propidium iodide (PI) (Invitrogen™ Dead Cell Apoptosis Kits with Annexin V for Flow Cytometry Catalog number: V13241). […] (FIG. 5e)
sequence,measurement,setting,value
"GACTGGAGATAATTAA (gapmer, pattern not given here) [SEQ ID NO: 15, GapmeR ASO targeting AC004540.4 (TRASH), exon region of both isoforms; used for in vitro experiments]",cell viability decrease,[1],significant cell viability decrease
same,cell viability decrease,[2],significant cell viability decrease
same,Caspase-3 &-7 activity increase,Caspase 3+7,3.0 fold
same,top enriched GO term clusters associated with the down-regulated genes,[3],“ECM-receptor interaction” and “PI3K-AKT signaling pathway”
same,top enriched GO term clusters associated with the up-regulated genes,[3],“protein tyrosine kinase activity” (GO: 0004713) and “Ras guanyl-nucleotide exchange factor activity” (G00005088)
same,"activity of anti-apoptotic kinases (AKT1, CDK1, LYN, YES1, CHEK1, PKCA, STK11, PKCa, PIM1) by HT-KAM",[4]; listed as SEQ TD NO: 15,significantly decreased activity levels
same,"activity of anti-apoptotic kinases (AKT1, CDK1, LYN, YES1, CHEK1, PKCA, STK11, PKCa, PIM1) by HT-KAM",[4]; listed as TRASH-ASO,significantly less active
same,fractions of apoptotic and dead cells (Annexin V / PI),D04 cells,Increased fractions of apoptotic and dead cells
